Assay results published in ChEMBL document CHEMBL2007661, “Compounds: GSK PKIS; Assays: UNC Frye lab” (2012).
Several values for one entry are separate records, joined by “and”; a condition that tells them apart may be missing. Equal values may be shown once.

Columns and labels:
Details in all cases: at 1 µM
[1] = molecular target: T1, Inhibitor of nuclear factor kappa-B kinase subunit alpha (Homo sapiens) (UniProt O15111)
T1 sequence (whole entry): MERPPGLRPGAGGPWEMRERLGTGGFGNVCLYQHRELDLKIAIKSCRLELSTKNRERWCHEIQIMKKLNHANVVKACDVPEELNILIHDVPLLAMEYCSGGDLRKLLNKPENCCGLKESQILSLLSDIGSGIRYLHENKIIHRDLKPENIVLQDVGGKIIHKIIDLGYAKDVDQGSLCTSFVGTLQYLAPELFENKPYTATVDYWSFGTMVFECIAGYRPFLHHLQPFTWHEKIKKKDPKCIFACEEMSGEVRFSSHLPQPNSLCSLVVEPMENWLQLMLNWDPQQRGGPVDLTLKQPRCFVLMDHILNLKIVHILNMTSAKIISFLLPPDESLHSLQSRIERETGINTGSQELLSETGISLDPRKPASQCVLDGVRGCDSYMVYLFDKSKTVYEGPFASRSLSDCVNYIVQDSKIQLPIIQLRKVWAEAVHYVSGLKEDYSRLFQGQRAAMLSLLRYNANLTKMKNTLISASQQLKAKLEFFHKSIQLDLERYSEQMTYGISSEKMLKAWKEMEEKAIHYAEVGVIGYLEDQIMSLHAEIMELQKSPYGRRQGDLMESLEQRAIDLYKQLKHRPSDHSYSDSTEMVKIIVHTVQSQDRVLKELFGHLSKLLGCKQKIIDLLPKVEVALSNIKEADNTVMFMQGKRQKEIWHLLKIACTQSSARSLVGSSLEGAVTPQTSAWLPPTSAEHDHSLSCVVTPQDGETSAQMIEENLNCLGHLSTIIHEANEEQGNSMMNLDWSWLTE

[2] = molecular target: T2, Inhibitor of nuclear factor kappa-B kinase subunit beta (Homo sapiens) (UniProt O14920)
T2 sequence (whole entry): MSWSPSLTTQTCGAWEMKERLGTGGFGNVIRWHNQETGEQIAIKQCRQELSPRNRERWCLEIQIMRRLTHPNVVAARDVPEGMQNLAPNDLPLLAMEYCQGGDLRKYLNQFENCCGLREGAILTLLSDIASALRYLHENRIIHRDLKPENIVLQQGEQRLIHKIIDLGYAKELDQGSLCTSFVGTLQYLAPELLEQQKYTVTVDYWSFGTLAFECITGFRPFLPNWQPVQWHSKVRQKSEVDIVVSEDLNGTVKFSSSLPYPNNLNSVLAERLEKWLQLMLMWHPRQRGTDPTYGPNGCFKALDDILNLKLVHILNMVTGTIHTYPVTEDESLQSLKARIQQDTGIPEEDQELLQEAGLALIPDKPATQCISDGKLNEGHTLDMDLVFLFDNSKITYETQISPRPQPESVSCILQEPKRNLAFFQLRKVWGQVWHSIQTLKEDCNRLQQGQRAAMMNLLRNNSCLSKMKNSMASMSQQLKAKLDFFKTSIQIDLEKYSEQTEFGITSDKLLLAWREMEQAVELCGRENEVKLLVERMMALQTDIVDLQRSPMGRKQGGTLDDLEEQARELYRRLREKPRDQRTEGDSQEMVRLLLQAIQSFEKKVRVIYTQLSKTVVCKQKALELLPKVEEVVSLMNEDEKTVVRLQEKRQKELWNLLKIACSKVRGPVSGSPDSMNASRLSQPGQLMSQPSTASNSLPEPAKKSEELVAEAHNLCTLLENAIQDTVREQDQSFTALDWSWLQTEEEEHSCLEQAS

[3] = molecular target: T3, Inhibitor of nuclear factor kappa-B kinase subunit epsilon (Homo sapiens) (UniProt Q14164)
T3 sequence (whole entry): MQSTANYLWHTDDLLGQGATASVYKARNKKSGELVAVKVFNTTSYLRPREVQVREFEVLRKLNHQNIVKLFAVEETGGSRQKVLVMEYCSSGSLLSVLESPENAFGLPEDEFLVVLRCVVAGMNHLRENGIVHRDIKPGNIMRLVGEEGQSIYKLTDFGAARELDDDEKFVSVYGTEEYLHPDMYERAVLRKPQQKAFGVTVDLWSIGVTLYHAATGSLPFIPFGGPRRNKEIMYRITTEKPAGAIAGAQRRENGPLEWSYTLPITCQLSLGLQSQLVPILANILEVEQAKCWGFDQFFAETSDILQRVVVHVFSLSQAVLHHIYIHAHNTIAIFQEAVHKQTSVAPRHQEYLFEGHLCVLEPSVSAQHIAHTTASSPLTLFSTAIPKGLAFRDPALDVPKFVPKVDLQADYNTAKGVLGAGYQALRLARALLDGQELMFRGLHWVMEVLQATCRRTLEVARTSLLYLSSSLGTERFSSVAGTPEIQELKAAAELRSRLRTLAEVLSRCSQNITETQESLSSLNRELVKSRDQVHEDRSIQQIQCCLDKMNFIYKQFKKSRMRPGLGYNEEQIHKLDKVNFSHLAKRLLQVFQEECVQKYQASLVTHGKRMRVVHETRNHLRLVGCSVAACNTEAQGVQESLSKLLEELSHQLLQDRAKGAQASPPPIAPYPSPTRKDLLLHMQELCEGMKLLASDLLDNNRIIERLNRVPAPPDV

[4] = molecular target: T4, Serine/threonine-protein kinase TBK1 (Homo sapiens) (UniProt Q9UHD2)
T4 sequence (whole entry): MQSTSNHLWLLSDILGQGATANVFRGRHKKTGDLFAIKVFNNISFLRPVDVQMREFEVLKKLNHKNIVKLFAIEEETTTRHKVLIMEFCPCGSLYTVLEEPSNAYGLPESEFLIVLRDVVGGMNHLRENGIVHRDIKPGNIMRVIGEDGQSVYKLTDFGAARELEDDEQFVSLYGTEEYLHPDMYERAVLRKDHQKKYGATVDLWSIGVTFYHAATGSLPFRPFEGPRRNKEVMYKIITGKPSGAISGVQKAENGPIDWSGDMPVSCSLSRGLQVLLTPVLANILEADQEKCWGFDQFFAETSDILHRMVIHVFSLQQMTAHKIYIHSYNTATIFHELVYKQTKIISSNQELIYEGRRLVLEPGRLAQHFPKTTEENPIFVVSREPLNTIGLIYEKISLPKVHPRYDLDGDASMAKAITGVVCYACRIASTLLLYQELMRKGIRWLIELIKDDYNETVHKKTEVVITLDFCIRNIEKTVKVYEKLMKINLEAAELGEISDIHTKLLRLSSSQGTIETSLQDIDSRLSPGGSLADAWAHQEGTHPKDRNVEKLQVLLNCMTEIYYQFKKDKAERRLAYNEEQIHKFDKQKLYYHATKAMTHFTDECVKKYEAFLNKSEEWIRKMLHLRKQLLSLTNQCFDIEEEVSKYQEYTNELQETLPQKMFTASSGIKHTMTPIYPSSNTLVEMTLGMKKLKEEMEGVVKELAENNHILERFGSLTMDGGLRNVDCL

SMILES | inhibition [1] | inhibition [2] | inhibition [3] | inhibition [4]
Cc1ccc(C(=O)NC2CC2)cc1-c1ccc2[nH]ncc2c1 | 0% | 0% | 1% and -2% | 0% and 2%
CCc1nn2ncccc2c1-c1ccnc(NC2CC2)n1 | 0% | -3% and -4% | -2% and -1% | 0% and -2%
Cc1ccc(NC(=O)c2ccoc2)cc1-c1ccc(C(=O)NCC2CC2)cc1 | 5% and 4% | -5% | 1% | 1% and 2%
CCN(CC)Cc1ccc(Nc2nccc(-c3cnn4ncccc34)n2)cc1 | -1% and -2% | -9% and -7% | 18% and 19% | 10% and 14%
COc1ccc(CNC(=O)c2ccc(-c3cc(-c4nnc(C)o4)ccc3C)cc2)cc1 | 3% and 7% | -2% and -3% | -3% | -6% and -5%
Cc1nnc(-c2ccc(C)c(-c3ccc(C(=O)NCc4ccc(Cl)cc4)cc3)c2)o1 | 2% and 4% | -2% and 0% | 2% | 3% and 4%
NS(=O)(=O)c1cccc(N/C=C2\C(=O)Nc3ccccc32)c1 | 1% and 2% | -4% and -1% | 22% and 26% | 31% and 38%
O=C1NC(=O)C(c2cccc(Cl)c2)=C1Nc1ccc(O)c(Cl)c1 | 3% and 4% | -6% and -9% | 16% and 15% | 58% and 55%
NS(=O)(=O)c1ccc(NC=C2C(=O)Nc3ccc4ncsc4c32)cc1 | 2% and 6% | -3% and -2% | 85% | 89% and 88%
FC(F)(F)c1cccc(-c2nn3ncccc3c2-c2ccnc(Nc3ccc4c(c3)OCCO4)n2)c1 | 1% and 2% | -3% and -2% | 3% and 0% | 3% and 1%
Fc1ccc(-c2ncn(C3CCNCC3)c2-c2ccnc(Oc3ccc(F)c(F)c3)n2)cc1 | 18% and 0% | -3% | -3% and -1% | 2% and 0%
O=C1NC(=O)C(c2ccccc2Cl)=C1Nc1cccc(O)c1 | 1% | -6% and -2% | 1% and 3% | 9% and 7%
NC(=O)c1ccc2c(-c3ccnc(NCCCO)n3)c(-c3ccc(F)cc3)nn2c1 | 1% | -2% and -1% | 1% and 0% | 3% and 1%
CCOc1ccc2c(-c3ccnc(Nc4cccc(C(F)(F)F)c4)n3)cnn2n1 | 1% | -3% and -6% | 45% | 55% and 52%
Nc1ccc(C#Cc2cncnc2Nc2ccc(OCc3cccc(F)c3)c(Cl)c2)cc1 | 2% and -8% | 7% and -3% | -2% and 0% | 1% and 2%
CNC(=O)Oc1cc(C)c(/C=C/c2cncc(C(=O)NC)c2)c(C)c1 | -3% and 5% | 1% and -3% | -1% | -1%
CN(C)c1ccc2c(c1)/C(=C/Nc1ccc(S(N)(=O)=O)cc1)C(=O)N2 | 0% and -1% | -3% | 37% and 36% | 76% and 74%
CC1=C(C(=O)Nc2cc(Cl)c3[nH]ncc3c2)C(c2ccc(C(F)(F)F)cc2)CC(=O)N1 (stereo not given) | 2% | -7% and 0% | 1% and 0% | -2% and 0%
CN(C)CCOc1ccc(-c2nc(-c3ccncc3)c(-c3ccc4c(c3)CC/C4=N\O)[nH]2)cc1 | 2% and -6% | 0% and -1% | -1% and 0% | -3% and -1%
C[C@@H](Oc1cc(-n2cnc3ccc(OC[C@@H](O)CO)cc32)sc1C(N)=O)c1ccccc1Cl | -3% and -4% | 1% and 4% | 1% and 3% | 4% and 1%
NC(=O)c1cccc(Nc2nccc(Nc3cccc4[nH]ncc34)n2)c1 | -5% | -2% and 2% | 41% and 42% | 45% and 44%
O=C1Nc2ccccc2/C1=C/Nc1ccc(-n2cncn2)cc1 | 4% and 3% | -5% and -4% | 18% | 23% and 27%
CCS(=O)(=O)c1ccc(OC)c(Nc2ncc(-c3cccc(OC)c3)o2)c1 | 1% | 3% and 0% | 3% | 11% and 8%
O=C1Nc2ccc(I)cc2C1=Cc1cc(Br)c(O)c(Br)c1 | 10% and 11% | 0% | 3% and 2% | 3%
O=C1Nc2ccccc2/C1=C1\CCc2cc(O)ccc21 | 1% and 0% | -3% and -4% | 13% | 25% and 30%
N#Cc1ccc2c(-c3ccnc(NC4CC4)n3)c(-c3ccc(F)cc3)nn2c1 | 1% and -2% | 4% and -1% | 1% | -1%
COc1cc2ncn(-c3cc(OCCc4ccccc4)c(C(N)=O)s3)c2cc1OC | -2% | 8% and 3% | 10% and 11% | 65% and 61%
O=C(O[C@H]1CN[C@H](C#Cc2cc3ncnc(Nc4ccc5c(ccn5Cc5cc(F)ccc5F)c4)c3s2)C1)N1CCOCC1 | -1% | 1% and 0% | 1% and -4% | 11% and 9%
Fc1ccc(-c2cc(-c3c[nH]nc3-c3ccccn3)ccn2)cc1 | 6% | -4% and -2% | -1% | -4% and -3%
CC(=O)Nc1cccc(C#Cc2cncnc2Nc2ccc(OCc3cccc(F)c3)c(Cl)c2)c1 | -6% | -2% and 0% | -7% and -6% | -6% and -7%
